Assay results published in patent US8399512B2, “Biocompatible biodegradable fumagillin analog conjugates” (Mersana Therapeutics, Inc., priority 2007, dated 2013).

Assays:
[1] = test system: human umbilical vein endothelial cells (HUVECs); assay: Inhibitory effect on HUVEC cell growth (MTS/PES colorimetry); assay type: cell-based; conditions: cultured 5 days, MTS/PES absorbance 490 nm
Description: Using human umbilical vein endothelial cells (HUVECs), the effect of the fumagillin analog conjugates and the fumagillin analogs on cell growth was evaluated.
The HUVECs were added to M199 medium supplemented with 20% FBS, after which the cells were incubated at 37° C. under 5% CO2. 96-well plates were seeded at 5,000 cells/well in a total volume of 100 μL. The cells were left overnight to attach to the plate. Cells were subcultured a maximum of 15 times before being discarded.
To evaluate the inhibitory activity of the fumagillin conjugate or the fumagillin analog alone on the growth of HUVEC cells, the conjugate or fumagillin analog was dissolved in the required amount of 0.9% saline, vortexed briefly to wet and disperse the solids, followed by vortexing for a total of 30 min. […] The cells were treated with the conjugate solution or fumagillin analog solution at various concentrations ranging from 30 nM to 0.01 nM, and cultured for 5 days at 37° C.
Colorimetry was performed to determine the extent of cell growth by adding 20 μL of MTS/PES reagent to each well, incubation for 4 h at 37° C. followed by measuring the absorbance at 490 nm.

[2] = test system: B16F10 tumor cells; assay: Tumor growth delay in B16F10 mouse melanoma; assay type: in vivo; conditions: IV, q3d × 4, BDF1 mice
Description: BDF1 female mice (N=6) with 1×10^6 B16F10 tumor cells positioned subcutaneous in the flank were treated with various fumagillin conjugates of the invention. Tumor growth was monitored in parallel with positive and negative controls of cyclophosphamide and saline respectively. Treatment began when tumors reached an average size of 80-120 mg and tumor volumes were measured two times per week until animals reached an endpoint tumor volume of 2 grams or 45 days, whichever came first. Conjugates were administered as solutions in saline intravenously at dose levels of 30-100 mg/kg (expressed as fumagillin analog equivalents) on a schedule of q3dx4. Treatment outcomes were assessed in terms of percent tumor growth delay (% TGD), (see FIG. 1) defined as the percent increase in median time to endpoint for mice treated with an agent compared to those treated with saline.

[3] = 80 mg/kg fumagillin analog equiv.

| Compound | IC50 ([1]; Homo sapiens, 120 h) | other results |
| --- | --- | --- |
| COC(=O)C12CCC(C(=O)O[C@@H]3CC[C@]4(CO4)[C@@H](C4(C)O[C@@H]4CC=C(C)C)[C@@H]3OC)(CC1)CC2 (stereo partly shown) [Compound 1] | < 25 nM | – |
| CO[C@H]1[C@H](C2(C)O[C@@H]2CC=C(C)C)[C@]2(CC[C@H]1OC(=O)NC(=O)CCl)CO2 (stereo partly shown) [Compound 2] | < 25 nM | – |
| COC(=O)[C@@H](N)CSCC(=O)NC(=O)O[C@@H]1CC[C@]2(CO2)[C@@H](C2(C)O[C@@H]2CC=C(C)C)[C@@H]1OC (stereo partly shown) [Compound 3] | < 25 nM | – |
| CO[C@H]1[C@H](C2(C)O[C@@H]2CC=C(C)C)[C@]2(CC[C@H]1OC(=O)/C=C/c1ccc(O)cc1)CO2 (stereo partly shown) [Compound 4] | > 30 nM | – |
| CO[C@H]1[C@H](C2(C)O[C@@H]2CC=C(C)C)[C@]2(CC[C@H]1OC(=O)NCc1ccccc1)CO2 (stereo partly shown) [Compound 5] | < 25 nM | – |
| CO[C@H]1[C@H](C2(C)O[C@@H]2CC=C(C)C)[C@]2(CC[C@H]1OC(=O)N[C@@H](C)c1ccccc1)CO2 (stereo partly shown) [Compound 6] | < 25 nM | % TGD [2, 3]: 5-20% |
| CO[C@H]1[C@H](C2(C)O[C@@H]2CC=C(C)C)[C@]2(CC[C@H]1OC(=O)N1CCN(CCO)CC1)CO2 (stereo partly shown) [Compound 7] | < 25 nM | % TGD [2, 3]: 5-20% |
| CCN1CCN(C(=O)O[C@@H]2CC[C@]3(CO3)[C@@H](C3(C)O[C@@H]3CC=C(C)C)[C@@H]2OC)CC1 (stereo partly shown) [Compound 9] | < 25 nM | % TGD ([2]; 100 mg/kg fumagillin analog equiv.): 20-50% |
| CO[C@H]1[C@H](C2(C)O[C@@H]2CC=C(C)C)[C@]2(CC[C@H]1OC(=O)N1CCN(C(C)=O)CC1)CO2 (stereo partly shown) [Compound 10] | < 25 nM | % TGD ([2]; 60 mg/kg fumagillin analog equiv.): 20-50% |
| CO[C@H]1[C@H](C2(C)O[C@@H]2CC=C(C)C)[C@]2(CC[C@H]1OC(=O)NCCc1ccc(N)cc1)CO2 (stereo partly shown) [Compound 11] | < 25 nM | % TGD ([2]; 65 mg/kg fumagillin analog equiv.): 20-50% |
| CO[C@H]1[C@H](C2(C)O[C@@H]2CC=C(C)C)[C@]2(CC[C@H]1OC(=O)N[C@H](C)c1ccccc1)CO2 (stereo partly shown) [Compound 12] | < 25 nM | % TGD [2, 3]: 5-20% |
| CO[C@H]1[C@H](C2(C)O[C@@H]2CC=C(C)C)[C@]2(CC[C@H]1OC(=O)/C=C/c1ccccc1)CO2 (stereo partly shown) [Compound 13] | > 30 nM | % TGD [2, 3]: 5-20% |
| COC(=O)[C@@H](N)CSCC(=O)NC(=O)O[C@@H]1CC[C@]2(CO2)[C@@H](C2(C)O[C@@H]2CC=C(C)C)[C@@H]1OC (stereo partly shown) [Compound 14] | – | IC50 [1]: < 25 nM |
| CO[C@H]1[C@H](C2(C)O[C@@H]2CC=C(C)C)[C@]2(CC[C@H]1OC(=O)C(=O)N(C)OC)CO2 (stereo partly shown) [Compound 15] | > 30 nM | % TGD [2, 3]: >50% |
| COC(=O)C(=O)O[C@@H]1CC[C@]2(CO2)[C@@H](C2(C)O[C@@H]2CC=C(C)C)[C@@H]1OC (stereo partly shown) [Compound 16] | > 30 nM | % TGD [2, 3]: 20-50% |
| CO[C@H]1[C@H](C2(C)O[C@@H]2CC=C(C)C)[C@]2(CC[C@H]1OC(=O)NCc1ccc(NC(C)=O)cc1)CO2 (stereo partly shown) [Compound 17] | < 25 nM | – |
| CO[C@H]1[C@H](C2(C)O[C@@H]2CC=C(C)C)[C@]2(CC[C@H]1OC(=O)NCCc1ccc(NC(C)=O)cc1)CO2 (stereo partly shown) [Compound 18] | < 25 nM | % TGD [2, 3]: 5-20% |
| CO[C@H]1[C@H](C2(C)O[C@@H]2CC=C(C)C)[C@]2(CC[C@H]1NC(=O)c1ccc([N+](=O)[O-])cc1)CO2 (stereo partly shown) [Compound 19] | < 25 nM | % TGD ([2]; 40 mg/kg fumagillin analog equiv.): 20-50% |
| CO[C@@H]1C(=O)CC[C@]2(CO2)[C@H]1C1(C)O[C@@H]1CC=C(C)C (stereo partly shown) [Compound 20] | < 25 nM | – |
| COc1cc(/C=C/C(=O)O[C@@H]2CC[C@]3(CO3)[C@@H](C3(C)O[C@@H]3CC=C(C)C)[C@@H]2OC)cc(OC)c1OC (stereo partly shown) [Compound 21] | < 25 nM | – |
| CCOC(=O)CCN1CCN(C(=O)O[C@@H]2CC[C@]3(CO3)[C@@H](C3(C)O[C@@H]3CC=C(C)C)[C@@H]2OC)CC1 (stereo partly shown) [Compound 22] | < 25 nM | % TGD ([2]; 30 mg/kg fumagillin analog equiv.): 5-20% |
| CO[C@H]1[C@H](C2(C)O[C@@H]2CC=C(C)C)[C@]2(CC[C@H]1OC(=O)/C=C/C=C/C=C/C=C/C(=O)O)CO2 (stereo partly shown) [Compound 24] | < 25 nM | – |

| Compound | IC50 ([1]; Homo sapiens, 120 h) | other results |
| --- | --- | --- |
| CO[C@H]1[C@H](C2(C)O[C@@H]2CC=C(C)C)[C@]2(CC[C@H]1NC(=O)NC(=O)CCl)CO2 (stereo partly shown) [Compound 28] | < 25 nM | – |
| CCOC(=O)C1CCC(CNC(=O)O[C@@H]2CC[C@]3(CO3)[C@@H](C3(C)O[C@@H]3CC=C(C)C)[C@@H]2OC)CC1 (stereo partly shown) [Compound 29] | < 25 nM | – |
| CO[C@H]1[C@H](C2(C)O[C@@H]2CC=C(C)C)[C@]2(CC[C@H]1OC(=O)NC(=O)CSc1ccc(N)cc1)CO2 (stereo partly shown) [Compound 30] | < 25 nM | – |
| CO[C@H]1[C@H](C2(C)O[C@@H]2CC=C(C)C)[C@]2(CC[C@H]1OC(=O)NC(=O)CSc1ccc(C(=O)O)cc1)CO2 (stereo partly shown) [Compound 34] | < 25 nM | – |
| CO[C@H]1[C@H](C2(C)O[C@@H]2CC=C(C)C)[C@]2(CC[C@H]1OC(=O)/C=C/c1ccc(OCCN(C)C)cc1)CO2 (stereo partly shown) [Compound 36] | < 25 nM | – |
| COc1cc(/C=C/C(=O)N[C@@H]2CC[C@]3(CO3)[C@@H](C3(C)O[C@@H]3CC=C(C)C)[C@@H]2OC)cc(OC)c1OC (stereo partly shown) [Compound 37] | 25 to 100 nM | – |
| CO[C@H]1[C@H](C2(C)O[C@@H]2CC=C(C)C)[C@]2(CC[C@H]1NC(=O)C13CCC(C(=O)NCCCOC(=O)[C@H](C)N)(CC1)CC3)CO2 (stereo partly shown) [Compound 41] | 100 to 300 nM | – |
| CO[C@H]1[C@H](C2(C)O[C@@H]2CC=C(C)C)[C@]2(CC[C@H]1NC(=O)C13CCC(C(=O)NCCCOC(=O)C4CCCN4)(CC1)CC3)CO2 (stereo partly shown) [Compound 42] | 100 to 300 nM | – |
| COC(=O)C12CCC(C(=O)N[C@@H]3CC[C@]4(CO4)[C@@H](C4(C)O[C@@H]4CC=C(C)C)[C@@H]3OC)(CC1)CC2 (stereo partly shown) [Compound 43] | < 25 nM | – |
| CO[C@H]1[C@H](C2(C)O[C@@H]2CC=C(C)C)[C@]2(CC[C@H]1NC(=O)CSc1ccc(N)cc1)CO2 (stereo partly shown) [Compound 45] | < 25 nM | – |
| COC(=O)c1ccc(C(=O)N[C@@H]2CC[C@]3(CO3)[C@@H](C3(C)O[C@@H]3CC=C(C)C)[C@@H]2OC)cc1 (stereo partly shown) [Compound 46] | < 25 nM | – |
| CO[C@H]1[C@H](C2(C)O[C@@H]2CC=C(C)C)[C@]2(CC[C@H]1OC(=O)NS(=O)(=O)N1CCN(C(C)=O)CC1)CO2 (stereo partly shown) [Compound 47] | < 25 nM | – |
| CO[C@H]1[C@H](C2(C)O[C@@H]2CC=C(C)C)[C@]2(CC[C@H]1NC(=O)c1ccc(C(=O)NCCCO)cc1)CO2 (stereo partly shown) [Compound 48] | < 25 nM | – |
| CO[C@H]1[C@H](C2(C)O[C@@H]2CC=C(C)C)[C@]2(CC[C@H]1NC(=O)C13CCC(C(=O)NCCCOC(=O)[C@@H]4CCCN4)(CC1)CC3)CO2 (stereo partly shown) [Compound 49] | 100 to 300 nM | – |
| CO[C@H]1[C@H](C2(C)O[C@@H]2CC=C(C)C)[C@]2(CC[C@H]1OC(=O)NCc1ccc(NC(=O)[C@H](C)N)cc1)CO2 (stereo partly shown) [Compound 50] | < 25 nM | – |
| CO[C@H]1[C@H](C2(C)O[C@@H]2CC=C(C)C)[C@]2(CC[C@H]1OC(=O)NC(=O)CSc1cccc(NC(=O)CCC(=O)O)c1)CO2 (stereo partly shown) [Compound 52] | < 25 nM | – |
| CO[C@H]1[C@H](C2(C)O[C@@H]2CC=C(C)C)[C@]2(CC[C@H]1NC(=O)N1CCN(CCO)CC1)CO2 (stereo partly shown) [Compound 53] | 25 to 100 nM | – |
| CO[C@H]1[C@H](C2(C)O[C@@H]2CC=C(C)C)[C@]2(CC[C@H]1OC(=O)N1CCN(CCOC(=O)CCC(=O)O)CC1)CO2 (stereo partly shown) [Compound 54] | < 25 nM | – |
| CO[C@H]1[C@H](C2(C)O[C@@H]2CC=C(C)C)[C@]2(CC[C@H]1OC(=O)N1CCN(CCOC(=O)C3CCCN3C(=O)OCC3c4ccccc4-c4ccccc43)CC1)CO2 (stereo partly shown) [Compound 55] | < 25 nM | – |
| CO[C@H]1[C@H](C2(C)O[C@@H]2CC=C(C)C)[C@]2(CC[C@H]1OC(=O)N1CCN(C(=O)[C@H](C)N)CC1)CO2 (stereo partly shown) [Compound 56] | < 25 nM | – |
| CO[C@H]1[C@H](C2(C)O[C@@H]2CC=C(C)C)[C@]2(CC[C@H]1NC(=O)NCCc1ccc(N)cc1)CO2 (stereo partly shown) [Compound 57] | < 25 nM | – |
